Columns and labels:
Type in all cases: cell-based, human
[1] = test system: MxA promoter; assay: MxA promoter-luciferase reporter screen in stably transfected PC-3M cells; settings: for Fold Increase in MxA Expression: MxA promoter-luciferase reporter in PC-3M cells, Control = 1.00; for expression of luciferase from the MxA promoter: PC-3M cells, DTP 1900 chemotype library screen, FIG. 8
Excerpt: FIG. 7 outlines the high-throughput screen used for identifying small molecules that induce MxA expression. The MxA promoter was cloned upstream of luciferase, and transfected it into PC-3M human prostate carcinoma cells. A cell line that stably expressed this promoter-reporter construct was isolated. This cell line was used for testing whether test agents could induce MxA expression by screening for increased luciferase expression using a library of 1900 chemotypes. Interferon-α was a positive control for this assay. To develop a reporter system for drug screening, particularly for a high throughput assay procedure, the MxA promoter was cloned upstream of a nucleic acid segment that encoded luciferase (see FIG. 7). A nucleic acid encoding a eukaryotic selection marker (neomycin) was also inserted in the vector used for the reporter cassette. After transfecting this construct into human prostate carcinoma cells, a cell line that stably maintained the MxA reporter gene was cloned. Test agents, including a library of small molecules (the DTP 1900 chemotype library) were screened to ascertain whether any of the test agents increased luciferase expression. Of the 1900 compounds tested, 5 compounds activated the MxA promoter and increased luciferase expression. […] Methods similar to those described in Example 4 were used to identify compounds that activate MxA expression.

[2] = test system: MxA protein; assay: Induction of MxA protein expression in PC-3-M prostate cancer cells by compounds; settings: FIG. 9
Experimental: The five compounds that induced luciferase expression from the MxA were then tested to ascertain whether these compounds could also induce MxA protein expression and inhibit motility of PC-3-M prostate cancer cells. Each of the compounds could do so (FIGS. 9 and 10).

[3] = test system: PC-3M cells; assay: Cell migration (motility) assay through pores of a PET membrane, PC-3M cells; settings: for motility of PC-3M cells: FIG. 10
Experimental: Effect of MxA on motility of PC-3M. […] It has been reported that type I IFN could reduce cell motility (Brouty-Boyé and Zetter, 1980), one component of metastasis. To test whether PC-3 and PC-3M cells differed in motility, these two cell lines were subjected to a cell migration assay that measured the ability of cells to migrate through pores in a polyethylene terephthalate (PET) membrane. The five compounds that induced luciferase expression from the MxA were then tested to ascertain whether these compounds could also induce MxA protein expression and inhibit motility of PC-3-M prostate cancer cells. Each of the compounds could do so (FIGS. 9 and 10).

[4] = test system: MxA protein; assay: MxA protein induction by IFN-α, anti-MxA immunostaining, PC-3M cells; settings: 24 hours, 1000 international units of IFN-α per ml, FIG. 2B
Experimental: (§1) PC-3 (Figure A1-4) and PC-3M (FIG. 2B) cells were grown for 24 hours on cover slips in the presence or absence of 1000 international units of IFN-α ml^1. The cells were then fixed, permeabilized, stained with monoclonal anti-MxA and Cy-3-conjugated goat anti-mouse Ig antibody and counterstained with DAPI. Immunofluorescence was visualized with a Zeiss Axiophot microscope with a 40× objective, and the images were captured on an Optronics CCD camera.
(§2) Induction of MxA expression by interferon. To determine whether IFN-α can induce MxA expression in PC-3 and PC-3M cells, cells were treated with recombinant IFN-α and subjected to immunohistochemical analysis using anti-MxA antibody and DAPI nuclear counterstaining to locate individual cells (FIG. 2). Consistent with the western blot result, this assay detected MxA protein only in untreated PC-3 and not in untreated PC-3M cells (compare upper left panels in FIGS. 2A and 2B). […] Western blotting (not shown) confirmed the IFN did induce increased MxA protein expression in both cell lines.

[5] = test system: PC-3 cells; assay: Cell migration (motility) assay through pores of a PET membrane, PC-3 cells; settings: 1000 IU ml^−1 IFN-α, FIG. 3A
Excerpt: FIG. 3A graphically illustrates the motility of PC-3M and PC-3 cells, before and after exposure to 1000 IU ml^−1 IFN-α. Mean values of percent of control PC-3M mobility are shown as bar graphs with mean percentages indicated above each bar. Each value represents the mean of two independent triplicate determinations. Error bars show range of determinations.
Effect of MxA on motility of PC-3M. […] It has been reported that type I IFN could reduce cell motility (Brouty-Boyé and Zetter, 1980), one component of metastasis. To test whether PC-3 and PC-3M cells differed in motility, these two cell lines were subjected to a cell migration assay that measured the ability of cells to migrate through pores in a polyethylene terephthalate (PET) membrane.

[6] = test system: MxA protein; assay: MxA protein induction by IFN-α, anti-MxA immunostaining, PC-3 cells; settings: 24 hours, 1000 international units of IFN-α per ml, FIG. 2A
Experimental: as §1, §2

Molecule | Fold Increase in MxA Expression [1] [fold] | other results
CC(C)CCc1c(Cl)nc(Cl)nc1Cl [Compound 2] | 1.03 | 
O=S(=O)(c1cccc(N=C=S)c1)c1cccc(N=C=S)c1 [Compound 3] | 1.11 | 
CN1CCN(CCNc2ccc(CO)c3sc4ccccc4c(=O)c23)CC1 [Compound 4] | 1.32 | 
CCCS(=O)(=O)Nc1ccc(Nc2c3ccccc3nc3ccccc23)c(OC)c1.CS(=O)(=O)O [Compound 6] | 3.65 | 
Cc1cc(=O)oc2cc(OC(=O)Nc3ccc(Cl)c(Cl)c3)ccc12 [Compound 7] | 1.18 | 
COc1cc2c3c(n(C)c(=O)c2cc1OC)-c1cc2c(cc1C3=O)OCO2 [Compound 8] | 1.71 | 
COC1CC(C)C(OC)c2cc(O)cc(c2O)NC(=O)/C(C)=C\C=C/C(C)C(OC(N)=O)/C(C)=C\C(C)C1OC (stereo not drawn) [Compound 10] | 0.40 | 
CS(=O)(=O)CS(=O)(=O)OCCCl [Compound 11] | 1.11 | 
CO[C@H]1[C@H](O)[C@@H](O)[C@H](n2c3c(Cl)cccc3c3c4c(c5c6cccc(Cl)c6[nH]c5c32)C(=O)NC4=O)O[C@@H]1CO [Compound 12] | 1.46 | 
COc1cc2c(cc1OC)C1C(=O)c3cc(OS(C)(=O)=O)c(OC)cc3C1N(C)C2=O (stereo not drawn) [Compound 13] | 2.15 | 
CCN(CC)CCCNc1nccc2c(C)c3[nH]c4ccncc4c(=O)c3cc12 [Compound 15] | 2.15 | 
COC1C(O)C(C)OC(OC2C(Oc3cccc4c(O)c5c(=O)oc6ccc(C)c7c(=O)oc(c34)c5c67)OC(C)C3O[C@H](c4ccccc4)OC32)C1O (stereo partly drawn) [Compound 16] | 2.25 | 
N/N=C(/C(=O)Nc1cccc(Cl)c1)C(C(=O)c1ccc(O)cc1O)C1OC(=O)c2ccccc21 (stereo not drawn) [Compound 17] | 1.05 | 
Cc1cccc(NC(=O)C(=O)C(C2OC(=O)c3ccccc32)[N+](=O)[O-])c1C (stereo not drawn) [Compound 18] | 0.79 | 
O=c1c2cc(O)ccc2n2nnc3ccc(NCCNCCO)c1c32 [Compound 19] | 2.08 | 
COc1cc(C2C(Cl)C(=O)N2NC(=O)c2ccc(N)cc2)ccc1O (stereo not drawn) [Compound 20] | 1.37 | 
COc1cc(C2C(Cl)C(=O)N2NC(=O)c2ccc(N)cc2)cc(Br)c1O (stereo not drawn) [Compound 21] | 1.64 | 
Cc1c(C(=O)/C=C/c2c(Cl)cccc2Cl)c(=O)n(-c2ccccc2)n1C [Compound 22] | 0.32 | 
CN(CCCn1ccnc1[N+](=O)[O-])CCCn1ccnc1[N+](=O)[O-] [Compound 23] | 1.28 | 

Molecule | Fold Increase in MxA Expression [1] [fold] | other results
C=[N+](CNC(=O)CNC(=O)C(Cc1ccc([N+](=O)[O-])cc1)NC(=O)OC(C)(C)C)C(=O)CNC(=O)C(Cc1ccc([N+](=O)[O-])cc1)NC(=O)OC(C)(C)C (stereo not drawn) [Compound 24] | 0.84 | 
CC(=O)C1=C(N=[N+]=[N-])c2cccc3cccc(c23)C1=O [Compound 26] | 0.95 | 
O=[N+]([O-])c1ccc(N2N=C(c3ccc4ccccc4c3O)CC2c2ccc(Cl)cc2Cl)c([N+](=O)[O-])c1 (stereo not drawn) [Compound 27] | 2.25 | 
O=C1CC(=O)NC(=NN2C(=O)CSC2c2ccc(Cl)cc2)N1 (stereo not drawn) [Compound 28] | 1.40 | 
CC(C)(Oc1ccc(Cl)cc1)C(=O)N(C(=O)N1CCCCC1)c1ccccc1 [Compound 29] | 1.03 | 
Cc1ccc2c(c1)C=CC1(O2)N(c2ccccc2)C(=S)OC1(C)C (stereo not drawn) [Compound 30] | 0.85 | 
CC1(C)OC(=S)N(c2ccccc2)C12C=Cc1cc3ccccc3cc1O2 (stereo not drawn) [Compound 31] | 0.91 | 
CCN(CC)CCNc1ccc2nnn3c4ccc(OC(C)=O)cc4c(=O)c1c23 [Compound 32] | 2.64 | 
CCOC(=O)[C@@H]1ON2O[C@H](OC3CCCCC3c3ccccc3)C[C@H]3OC(=O)[C@@H]1C32 (stereo partly drawn) [Compound 33] | 1.03 | 
CCOC(=O)c1cccc(NC(=O)CBr)c1 [Compound 34] | 0.27 | 
C=CC[C@H]1[C@H](O[Si](C)(C)C(C)(C)C)C=CC(=O)[C@@H]1CC(=O)OCC [Compound 35] | 0.68 | 
O=C1C(=C(C(=O)c2ccccc2)C(=O)c2ccccc2)OC(c2ccccc2)=C1C(=O)c1ccccc1 [Compound 36] | 1.62 | 
COC1C(O)C(C)OC(CCOC2C(Oc3cccc4c(O)c5c(=O)oc6ccc(C)c7c(=O)oc(c34)c5c67)OC(C)C(O)C2O)C1O (stereo not drawn) [NSC 5159, 10-{3-[2-(3,5-Dihydroxy-4-methoxy-6-methyl-tetrahydro-pyran-2-yl)-ethoxy]-4,5-dihydroxy-6-methyl-tetrahydro-pyran-2-yloxy}-6-hydroxy-1 methyl-benzo[h]chromeno[5,4,3-cde]chromene-5,12-dione] |  | induction of MxA protein expression [2]: induce expression of MxA protein; motility of PC-3M cells [3]: decrease the motility; expression of luciferase from the MxA promoter [1]: induce expression of luciferase
Cc1cc(Cc2cc(C)c(N)cc2N)c(N)cc1N [NSC 7215, methylene-bis(2,4-amino-5-methyl-benzene)] |  | induction of MxA protein expression [2]: induce expression of MxA protein; motility of PC-3M cells [3]: decrease the motility; expression of luciferase from the MxA promoter [1]: induce expression of luciferase
O=[N+]([O-])c1ccc(Nc2nc3ccccc3s2)cc1 [NSC 34444, benzothiazol-2-yl-(4-nitro-phenyl)-amine] |  | expression of luciferase from the MxA promoter [1]: induce expression of luciferase
COc1ccc2cc(COCCC(=O)O)ccc2c1 [NSC 46669, 3-(6-Methoxy-naphthalen-2-ylmethoxy)-propionic acid] |  | induction of MxA protein expression [2]: induce expression of MxA protein; motility of PC-3M cells [3]: decrease the motility; expression of luciferase from the MxA promoter [1]: induce expression of luciferase
O=C(O)c1ccc(Oc2nc3ccccc3s2)cc1 [NSC 122335, 4-(benzothiazol-2-yloxy)-benzoic acid] |  | induction of MxA protein expression [2]: induce expression of MxA protein; motility of PC-3M cells [3]: decrease the motility; expression of luciferase from the MxA promoter [1]: induce expression of luciferase
IFN-α |  | level of MxA protein after exposure to IFN-α [4]: became detectable for the first time; PC-3M cell motility ([3]; 1000 IU ml^−1 IFN-α, FIG. 3A): reduced PC-3M cell motility to a level comparable to that of PC-3 cells; PC-3 cell motility [5]: reduced its motility to levels below that seen when no IFN was present; level of MxA protein after exposure to IFN-α [6]: increased substantially

Source: patent US20100041617A1, “Modulating mxa expression” (priority 2004, published 2010)
